A short description of one series: in vivo. The conditions noted are these: male, Sprague-Dawley, rat; for Kp at 60 min: R (ratio of concentration between CSF and bloodstream). On the procedure:
Male Sprague-Dawley rats (200–250 g) were purchased from the Charles River laboratories (Calco, Italy). BCA was administered to rats by intravenous and oral routes in order to evaluate the pharmacokinetic profiles in the bloodstream and cerebrospinal fluid (CSF). For the intravenous administration, BCA EO (84% w/w BCA content) was dissolved in ethanol to obtain a final BCA concentration of 8 mg/mL. A group (n = 4) of rats, fasted for 24 h, was anesthetized during the experimental period and then received via a femoral intravenous infusion (rate = 10 μL/min; 5 min) 50 µL of the 8 mg/mL ethanolic solution (BCA dose 2 mg/kg). This dosage was chosen basing on a previous study where BCA was intravenously administered to rats at a dose of about 1.5 mg/kg as a minor component of Artemisiae argyi Folium EO (5.3% w/w). For oral administration, BCA EO was dissolved in corn oil to obtain a final BCA concentration of 20 mg/mL. A total of 500 µL of this corn oil solution was orally administered by gavage to a group (n = 4) of rats kept fasting for 24 h (BCA dose 50 mg/kg).
At the end of the intravenous and oral administrations and at fixed time points, blood samples (100 μL) were collected. Moreover, CFS samples (about 30 μL) were withdrawn using the cisternal puncture method previously described. This method requires a single needle stick and allows the collection of serial (about 30 μL) CSF samples that are virtually blood-free. A total volume of a maximum of 120 μL of CSF/rat (i.e., four 30 μL samples/rat) was collected during the experimental session, choosing the time points (n = 4) to allow the restoration of the CSF physiological volume. The CSF samples (10 μL) were immediately analyzed via HPLC (see below) for the quantification of BCA. For the BCA analysis in the bloodstream, the blood samples (n = 4) were immediately added to 200 μL of ice-cold CH3CN, then 100 μL of the internal standard dissolved in CH3CN (100 μM GER-UDCA, obtained by the conjugation of geraniol with ursodeoxycholic acid) was further inserted. The samples were centrifuged at 16,000× g for 5 min, then about 300 μL of the supernatant was withdrawn and further centrifuged. Finally, 10 μL was analyzed via HPLC (see below) for BCA quantification. A blood sample (100 μL) was collected from each rat before the administration of the compound and was used as a control. The control samples were immediately added to 300 μL of ice-cold CH3CN in the absence of the internal standard and then treated as described above.
The BCA was quantified by the HPLC method, using a chromatographic apparatus that consisted of a modular system (model LC-10 AD VD pump and model SPD-10A VP variable wavelength UV−vis detector; Shimadzu, Kyoto, Japan) and an injection valve with a 20 μL sample loop (model 7725; Rheodyne, IDEX, Torrance, CA, USA). The separations were performed on a 5 μm Hypersil BDS C-18 column (150 mm × 4.6 mm i.d.; ThermoFisher Scientific S.p.A., Milan, Italy) equipped with a guard column packed with the same Hypersil material at room temperature by injecting 10 µL of the samples into the apparatus. Data were acquired and processed using CLASS-VP software, version 7.2.1 (Shimadzu Italia, Milan, Italy), installed on a personal computer. The mobile phase consisted of an isocratic mixture of water and acetonitrile at a ratio of 10:90 (v/v), with a flow rate of 1 mL/min. The detector was set at 205 nm. The retention times obtained were 7.5 min for BCA and 5.6 min for GER-UDCA.
The chromatographic precision was evaluated by repeated analyses (n = 6) of the same sample solution containing 100 μM (20.435 µg/mL) BCA dissolved in a mixture of water and CH3CN 25:75 (v/v). The chromatographic precision, expressed as the relative standard deviation (RSD) value, was 0.84%. […]

Another series concerns U87 cells. As to the kind of experiment: Clonogenic cell survival assay. Format: cell-based, human. The settings on record: EU 200 µM, BCA 125 µM, alone or in combination, 14 days. On the procedure: An evaluation of the antiproliferative effect via clonogenic assay on the tumoral U87 cells was performed using an adapted protocol from the previously described procedure. Briefly, U87 cells (0.8 × 10^3 cells/well) were seeded into 6-well plates and incubated for 24 h. After the incubation, based on the results obtained from the cell viability assay and synergistic score, the cells were treated either with EO single compounds diluted in ethanol alone (EU 200 µM and BCA 125 µM) or in combination for 14 days with the media being changed every 2/3 days. The cells without treatment were considered the control condition. Following the incubation, the cells were washed with PBS, fixed with paraformaldehyde (PFA) and stained with 0.1% crystal violet solution. The number of colonies was counted by microscopy, and the surviving fraction (SF) was calculated as the mean colonies/number of cells seeded.

Setting [1] is: iv, 2 mg/kg, cerebrospinal fluid (CSF).
Where [2] appears, read: po, 50 mg/kg, cerebrospinal fluid (CSF).

Regarding `C=C1CC/C=C(\C)CC[C@@H]2[C@@H]1CC2(C)C` [BCA, β-Caryophyllene], the bioavailability in “in vivo” (F (absolute bioavailability)) stood at 2.11 ± 0.03%. In “in vivo” (iv, 2 mg/kg), the half-life was 49.7 ± 2 min, the “time at which CSF concentration decreased to zero” value was not above 150 min, the “time at which bloodstream concentration decreased to zero” value was not above 180 min and the Kp at 60 min turned out to be 0.08 ± 0.01. The compound also gave an AUC in the series “in vivo” (iv, 2 mg/kg, bloodstream) of 108000 ng·h/mL. Moreover, in the series “in vivo” (setting [1]), the AUC was 6290 ng·h/mL, the Cmax was determined as 8000 ± 800 ng/mL and the Tmax was 30 min. In addition, the Kp at 30 min in the series “in vivo” (iv, 2 mg/kg, R (ratio of concentration between CSF and bloodstream) at CSF Tmax) came to 0.13 ± 0.01. Moreover, in the series “in vivo” (po, 50 mg/kg), the “Cmax, bloodstream” value worked out at 22530 ± 90 ng/mL; the “time at which CSF concentration decreased to zero” value is reported as 120 min; the “time at which bloodstream concentration decreased to 0” value stood at 300 min; the Kp at 60 min was approximately 0.01. The “R (ratio of concentration between CSF and bloodstream) at CSF Tmax” value in “in vivo” (po, 50 mg/kg, 90 min) is listed as 0.019 ± 0.002. Further, in the series “in vivo” (po, 50 mg/kg, bloodstream), the AUC is 56800 ng·h/mL, the concentration peaked (Cmax) at 22500 ± 900 ng/mL and the Tmax was 60 min. In “in vivo” (setting [2]), the AUC is 313 ng·h/mL, the Cmax worked out at 420 ± 40 ng/mL and the Tmax was 90 min. Also, in “in vivo” (po, 50 mg/kg, R (ratio of concentration between CSF and bloodstream) at CSF Tmax), the Kp at 90 min is approximately 0.02. The “decrease of clonal growth / colony formation with respect to control” value with U87 cells was −63.8%.

The term bioavailability denotes dose-corrected exposure relative to a reference, in per cent. By half-life is commonly meant the time needed for the level to fall by half in the phase considered. Low values mean rapid decline, high ones slow decline. What is called AUC is the area under the concentration-time curve, a measure of exposure. Read a high AUC as high exposure. One may read the Cmax as the peak of the concentration-time curve. For orientation: Kp means the ratio of the level in a tissue or fluid to that in plasma or blood. Usually Tmax stands for the time at which the peak concentration occurs.

Values taken from paper PMC11720353, “Clove Essential Oil as a Source of Antitumoral Compounds Capable of Crossing the Blood–Brain Barrier: A Focus on the Effects of β-Caryophyllene and Eugenol in a Glioblastoma Cell Line” (International Journal of Molecular Sciences, 2024).
